Tests used:
[1] = target: T1, mitochondrial benzodiazepine receptor (MBR) (Rattus norvegicus, UniProt P16257); assay: Binding assay of mitochondrial benzodiazepine receptor (MBR), [3H]4'-chlorodiazepam (Ro5-4864), rat kidney membrane-preparation; conditions: rat kidney membranes, [3H]4'-chlorodiazepam 0.5 nM, 0° C. for 150 minutes
T1 construct: from tissue; host or cells: kidney of male Wistar rats (crude membrane preparation)
Method: The binding assay of central-type benzodiazepine receptor (CBR) and the preparation of receptor membrane-preparation were carried out according to the partially modified method of Braestrup, C. et al. [see; Br. J. Psychiatry, 133, 249-260 (1978)] with a minor modification; the binding assay of mitochondrial benzodiazepine receptor (MBR) and the preparation of receptor membrane-preparation were carried out according to the method of Schoemaker, H [see; J. Pharmacol. Exp. Ther., 225, 61-69 (1983)] with a minor modification.
CBR and MBR membrane-preparations were prepared from forebrain (CBR) and kidney (MBR) of male Wistar strain rats according to the following procedure, respectively.
To the forebrain of rat, 20 volumes of ice-cold 0.32 M sucrose solution to wet-weight of the tissue (1:20, wet-weight/vol) was added and homogenized, and then the homogenate was centrifuged at 900×g for 10 minutes. The supernatant was centrifuged at 11,500×g for 20 minutes, a buffer I for the binding assay (50 mM Tris-hydrochloric acid buffer, pH 7.5) was added to the resultant precipitate, and the mixture was homogenized, and then it was centrifuged at 30,000×g for 10 minutes. The resulting precipitate was washed 3 times according to the same operation, suspended in the buffer I (1 g of wet-weight of tissue/10 ml) and used as a CBR membrane-preparation for the binding assay. The CBR membrane-preparation was stored at −80° C. until use, and on the day of the assay, it was thawed and suspended in the buffer for use. On the other hand, kidney of rat was homogenized in 20 volumes of ice-cold buffer II for the binding assay to wet-weight of the tissue (1:20, wet-weight/vol) (50 mM sodium phosphate-potassium phosphate buffer solution containing 100 mM sodium chloride, pH 7.4), and then filtrated through 4 layers of gauze, and the filtrate was centrifuged at 40,000×g for 20 minutes. The resulting precipitate was suspended in the buffer II (1 g of wet-weight of tissue/50 ml) and used as a MBR membrane-preparation for the binding assay.
As a labeled ligand and a non-labeled ligand, [^3H]flunitrazepam (final concentration: 1 nM) and diazepam (final concentration: 20 μM) were used respectively, for the CBR binding assay, and [^3H]4′-chlorodiazepam (Ro5-4864, chemical name: 7-chloro-1,3-dihydro-1-methyl-5-(4-chloro-phenyl)-2H-1,4-[…]) (final concentration: 0.5 nM) and diazepam (final concentration: 50 μM) were used respectively, for the MBR binding assay. The binding assay of CBR was carried out by incubating at 0° C. for 30 minutes, while that of MBR was at 0° C. for 150 minutes.
The receptor binding assay was carried out in the following procedure. The test compound which the concentration was known, a tritium labeled ligand, a receptor membrane-preparation and the buffer I or II for the binding assay were added to a 96-well microplate in the total volume was 0.2 ml, and when the receptor membrane-preparation was added, the reaction started. After the incubation, the labeled ligand binding to the receptor was filtrated through a filter plate (UNI FILTER-96GF/B, PerkinElmer, the U.S.) using a cell harvester (PerkinElmer, the U.S.) to stop the reaction. The filter was immediately washed 6 times with 0.3 ml of the ice-cold buffer [50 mM Tris-hydrochloric acid buffer (pH 7.7)]. After 30 μl of liquid scintillation cocktail (MICROSCINTI 20, PerkinElmer, the U.S.) was added to each well on the dried filter plate, the radioactivity was measured with a TopCount. The specific binding amount was obtained by subtracting the non-specific binding amount which was simultaneously measured in the presence of non-labeled ligand from the total binding amount. The concentration that the test compound could decrease the specific binding amount of the labeled ligand to 50% of the amount (IC50 value) was analyzed using nonlinear least-squares method.

[2] = tested on: mice (male ddY); assay: Social interaction test (antianxiety effect); type: in vivo, mouse; conditions: oral, 1 hour before test; statistically significant increase in social interaction time vs vehicle (Dunnett's test, 5%)
Description: The test is a behavioral pharmacological test wherein social interaction time which would arise between 2 animals (mice, rats or other) in a test apparatus is considered to be as an anxious indicator [see; File, S. E., J. Neurosci. Methods, 2, 219-238 (1980)]. It is known that a bright and unfamiliar test apparatus which is an aversive condition for mice or rats may suppress a social interaction of the animals and such suppressed social interaction may be restored by an antianxiety drug such as benzodiazepines.
A glass beaker which was inverted onto a frosted glass plate was brightly illuminated with a light source (ca. 1200 lux in the apparatus), and it was used as a test apparatus. Two mice (male ddY, 22-32 g) that were housed in separate home cages were orally treated with a test compound and returned to their home cages. One hour after the oral administration, the two mice were then placed together in the test apparatus, and the amount of time spent in social interaction by the two mice during a 15-minute period was recorded. The social interaction was defined as grooming and sniffing of the partner, genital investigation of the partner, climbing over or crawling under the partner. Four to five pairs (8 to 10 mice) were used per a group.
An antianxiety effect of the test compounds was presented as a minimum effective dose which indicated statistically significant increase in social interaction time as compared with a vehicle control group (Dunnett's test, Significance level: 5%).

Row | Compound | IC50 [1] | melting point | Minimum effective dose [2]
1 | C[C@H]1CCCN(C(=O)[C@@H]2Cc3ccccc3N2c2ncccn2)C1 [Example 23, (S)-2-[(S)-3-methylpiperidin-1-yl]carbonyl-1-(2-pyrimidinyl)indoline] | 0.949 nM | 212 to 214 °C | 0.01 mg/kg
2 | CCn1nc(N2c3ccccc3C[C@H]2C(=O)N2CCC[C@H](C)C2)ccc1=O [Example 129, (S)-1-(1-ethyl-6-oxo-1,6-dihydropyridazin-3-yl)-2-[[(S)-3-methylpiperidin-1-yl]carbonyl]indoline] | 5.56 nM | – | 1 mg/kg
3 | 2-[((cis-3,5-dimethylpiperidin-1-yl)-carbonyl]-1-(2-pyrimidinyl)indoline [Example 1] | 1.98 nM | – | 0.001 mg/kg
4 | C[C@@H]1C[C@H](C)CN(C(=O)[C@@H]2Cc3ccccc3N2c2cccnn2)C1 [Example 57, (S)-2-[(cis-3,5-dimethylpiperidin-1-yl)-carbonyl]-1-(3-pyridazinyl)indoline] | 2.03 nM | – | 0.1 mg/kg
5 | CCCn1nc(N2c3ccccc3C[C@H]2C(=O)N2CCC[C@H](C)C2)ccc1=O [Example 130] | 4.04 nM | 183 to 185 °C | –
6 | CC1CCCN(C(=O)[C@@H]2Cc3ccccc3N2c2cnccn2)C1 (stereo partly drawn) [Example 59] | 12.9 nM | 177 to 179 °C | –
7 | C[C@H]1CCCN(C(=O)[C@@H]2Cc3cc(Cl)ccc3N2c2ccc(=O)n(C)n2)C1 [Example 94] | 16.7 nM | 243 to 244 °C | –
8 | C[C@H]1CCCN(C(=O)[C@@H]2Cc3ccccc3N2c2nc3ccccc3s2)C1 [Example 14] | 0.823 nM | 165 to 166 °C | –
9 | C[C@H]1CCCN(C(=O)[C@@H]2Cc3cc(Cl)ccc3N2c2cccnn2)C1 [Example 91] | 2.31 nM | 175 to 177 °C | –
10 | C[C@H]1CCCN(C(=O)C2Cc3cc(F)ccc3N2c2ccc(Cl)nn2)C1 (stereo partly drawn) [Example 67] | 1.56 nM | 164 to 168 °C | –
11 | C[C@H]1CCCN(C(=O)[C@@H]2Cc3ccccc3N2c2cccnn2)C1 [Example 63, (S)-2-[(S)-3-methylpiperidin-1-yl]carbonyl-1-(3-pyridazinyl)indoline] | 2.51 nM | 143 to 145 °C | 0.01 mg/kg
12 | C[C@H]1CCCN(C(=O)[C@@H]2Cc3ccccc3N2c2nsc3ccccc23)C1 [Example 28] | 5.72 nM | 176 to 178 °C | –
13 | C[C@@H]1C[C@H](C)CN(C(=O)[C@@H]2Cc3ccccc3N2c2nc3ccccc3o2)C1 [Example 18] | 1.47 nM | 165 to 167 °C | –
14 | C[C@H]1CCCN(C(=O)[C@@H]2Cc3ccccc3N2c2ccc(=O)n(CC(F)F)n2)C1 [Example 127] | 1.97 nM | 173 to 175 °C | –
15 | COc1ccc2c(c1)N(c1ccc(Cl)nn1)C(C(=O)N1CCC[C@H](C)C1)C2 (stereo partly drawn) [Example 70] | 2.45 nM | 184 to 186 °C | –
16 | C[C@@H]1C[C@H](C)CN(C(=O)[C@H]2Cc3ccccc3N2c2ncccn2)C1 [Example 42] | 14.3 nM | 159 to 160 °C | –

Row | Compound | IC50 [1] | melting point | Minimum effective dose [2]
17 | COc1ccc(N2c3ccccc3C[C@H]2C(=O)N2CCC[C@H](C)C2)nn1 [Example 73, (S)-1-(6-Methoxypyridazin-3-yl)-2-[[(S)-3-methylpiperidin-1-yl]carbonyl]indoline] | 3.35 nM | 134 to 137 °C | –
18 | CC1CC(C)CN(C(=O)[C@@H]2Cc3ccccc3N2c2ncccn2)C1 (stereo partly drawn) [Example 25] | 6.73 nM | 237 to 239 °C | –
19 | C[C@@H]1CCCN(C(=O)[C@@H]2Cc3ccccc3N2c2cccnn2)C1 [Example 62] | 12.2 nM | 169 to 172 °C | –
20 | C[C@H]1CCCN(C(=O)[C@@H]2Cc3ccccc3N2c2ccc3nccn3n2)C1 [Example 78] | 2.53 nM | 190 to 193 °C | –
21 | C[C@H]1CCCN(C(=O)[C@@H]2Cc3ccccc3N2c2ccc3nnc(Cl)n3n2)C1 [Example 79, (S)-1-(3-chloro-1,2,4-triazolo[4,3-b]pyridazin-6-yl)-2-[[(S)-3-methylpiperidin-1-yl]carbonyl]indoline] | 1.76 nM | 268 to 269 °C | –
22 | C[C@@H]1C[C@H](C)CN(C(=O)[C@@H]2Cc3ccccc3N2c2cncc(Cl)n2)C1 [Example 21] | 1.23 nM | 174 to 175 °C | –
23 | COc1ccc(N2c3ccccc3C[C@H]2C(=O)N2C[C@H](C)C[C@H](C)C2)nn1 [Example 39] | 1.71 nM | 173 to 175 °C | –
24 | CC1CC(C)CN(C(=O)C2Cc3ccccc3N2c2ccncn2)C1 (racemic) [Example 58] | 4.31 nM | 107 to 109 °C | –
25 | O=C(C1Cc2ccccc2N1c1ncccn1)N1CCCCC1 (stereo not drawn) [Example 7] | 123 nM | 149 to 151 °C | –
26 | Cc1ccc(N2c3ccccc3CC2C(=O)N2C[C@H](C)C[C@H](C)C2)nc1 (relative stereo) [Example 11] | 1.84 nM | 137 to 139 °C | –
27 | C[C@H]1CCCN(C(=O)[C@@H]2Cc3ccccc3N2c2ccc(=O)n(Cc3ccccc3)n2)C1 [Example 123, (S)-1-(1-benzyl-6-oxo-1,6-dihydropyridazin-3-yl)-2-[[(S)-3-methylpiperidin-1-yl]carbonyl]indoline] | 1.45 nM | 220 to 222 °C | –
28 | C[C@@H]1C[C@H](C)CN(C(=O)[C@@H]2Cc3ccccc3N2c2ccc(=O)n(C)n2)C1 [Example 41, (S)-1-(1-methyl-6-oxo-1,6-dihydropyridazin-3-yl)-2-[(cis-3,5-dimethylpiperidin-1-yl)carbonyl]indoline] | 2.41 nM | 200 to 204 °C | 0.01 mg/kg
29 | C[C@@H]1C[C@H](C)CN(C(=O)[C@@H]2Cc3ccccc3N2c2ncccn2)C1 [Example 24, (S)-2-(cis-3,5-dimethylpiperidin-1-yl)carbonyl-1-(2-pyrimidinyl)indoline] | 0.851 nM | 163 to 164 °C | 0.001 mg/kg
30 | C[C@H]1CCCN(C(=O)[C@@H]2Cc3ccccc3N2c2ccccn2)C1 [Example 72] | 0.659 nM | 186 to 189 °C | –
31 | CC1CCCN(C(=O)C2Cc3cc(F)ccc3N2c2ccc(=O)n(C)n2)C1 (racemic) [Example 132] | 10.1 nM | 217 to 219 °C | –
